From patent publication US9802962B2, “Tricyclic pyrone compounds reduce amyloid beta aggregates” (priority 2013, dated 2017)

Key:
[1] = test system: MC65 neuroblastoma cells; experiment: MC65 protection assay; type: cell-based
Protocol: Employing medium-throughput cell-based MC65 protection assay to screen over one hundred TP compounds, seven TP compounds that protect MC65 neuroblastoma cells from death caused by intracellular Aβ have been identified. […] The EC50 values for CP2, TP70, and TP101 are 120, 80, and 70 nM, respectively.

[2] = test system: ACAT; experiment: ACAT inhibition; type: biochemical; conditions: read-out: half maximal inhibitory concentration (IC50), ACAT
Source text: It has been reported that an induction of cholesterol efflux resulting in a reduction of Aβ formation/deposition in vitro and in vivo (Kim, et al., J Alzheimers Dis, 2009, 16:121-131). For additional Detail, see the attached manuscript entitled, “Inhibition of Acyl-CoA: Cholesterol Acyltransferase (ACAT), Overexpression of Cholesterol Transporter Gene, and Protection of Amyloid β (Aβ) Oligomers-Induced Neuronal Cell Death by Tricylic Pyrone Molecules” which is incorporated herein.

Cc1cc2c(c(=O)o1)C=C1CCC(C(C)CNCc3ccc(O)cc3)CC1O2 (stereo not shown) [TP70]
concentration required for cell toxicity protection [1]: submicromolar | EC50 values (in words) ([1]; protection of MC65 cells from death caused by intracellular Aβ): nanomolar range | EC50 ([1]; protection of MC65 cells from death caused by intracellular Aβ, read-out: effective concentrations for 50% cell survival (EC50)): 0.08 µM | IC50 [2]: 0.3 µM
